According to ChEMBL document CHEMBL1145124, “Identification and prediction of promiscuous aggregating inhibitors among known drugs” (J Med Chem, 2003):

Key:
[1] = molecular target: Beta-lactamase (Escherichia coli K-12) (UniProt P00811); assay: Inhibition of beta-lactamase at 100 uM
[2] = molecular target: T1, Chymotrypsin-C (Homo sapiens) (UniProt Q99895); assay: Inhibition of chymotrypsin at 250 uM; conditions: unidentified
T1 sequence (whole entry): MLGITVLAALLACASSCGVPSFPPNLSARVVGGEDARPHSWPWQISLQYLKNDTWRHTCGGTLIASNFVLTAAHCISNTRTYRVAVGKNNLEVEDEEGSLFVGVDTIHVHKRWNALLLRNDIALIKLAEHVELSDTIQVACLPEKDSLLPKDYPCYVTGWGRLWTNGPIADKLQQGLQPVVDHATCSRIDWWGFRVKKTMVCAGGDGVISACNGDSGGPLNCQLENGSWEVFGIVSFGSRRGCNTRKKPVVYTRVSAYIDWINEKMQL

[3] = molecular target: T2, Malate dehydrogenase, cytoplasmic (Homo sapiens) (UniProt P40925); assay: Inhibition of malate dehydrogenase (MDH) at 400 uM
T2 sequence (whole entry): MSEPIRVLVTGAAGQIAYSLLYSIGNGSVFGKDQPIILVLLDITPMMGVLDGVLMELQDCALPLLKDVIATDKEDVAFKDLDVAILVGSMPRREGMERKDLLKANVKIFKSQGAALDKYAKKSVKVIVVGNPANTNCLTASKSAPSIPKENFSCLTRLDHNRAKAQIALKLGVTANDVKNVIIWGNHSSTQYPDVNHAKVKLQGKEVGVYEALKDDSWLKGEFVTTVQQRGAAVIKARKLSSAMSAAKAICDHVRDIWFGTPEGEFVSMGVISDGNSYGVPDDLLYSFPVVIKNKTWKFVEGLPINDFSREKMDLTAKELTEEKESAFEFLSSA

[4] = molecular target: T3, Malate dehydrogenase, mitochondrial (Sus scrofa) (UniProt P00346); assay: Compound was tested for the inhibition of malate dehydrogenase (MDH) at 200 uM
T3 sequence (whole entry): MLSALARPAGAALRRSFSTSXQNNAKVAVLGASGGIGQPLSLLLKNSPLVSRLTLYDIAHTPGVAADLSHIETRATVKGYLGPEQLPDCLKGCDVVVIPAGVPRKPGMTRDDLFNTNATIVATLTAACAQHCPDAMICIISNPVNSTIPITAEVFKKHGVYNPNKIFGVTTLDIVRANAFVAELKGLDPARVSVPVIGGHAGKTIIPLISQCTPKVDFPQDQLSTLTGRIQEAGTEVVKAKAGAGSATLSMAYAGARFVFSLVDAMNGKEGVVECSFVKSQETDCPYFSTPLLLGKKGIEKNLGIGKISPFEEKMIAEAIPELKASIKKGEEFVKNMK

Chymotrypsinogen A [5] = molecular target: T4, Chymotrypsinogen A (Bos taurus, UniProt P00766); assay: Compound was tested for the inhibition of Chymotrypsinogen
Beta-lactamase [6] = molecular target: T5, Beta-lactamase (Escherichia coli K-12, UniProt P00811); assay: Compound was tested for the inhibition of beta-lactamase
Chymotrypsinogen A [7] = molecular target: T4, Chymotrypsinogen A; assay: Fold decrease in IC50 vs chymotrypsinogen on pre-incubation; increase
[8] = Topical dosage on […] scabies; format: functional
[9] = molecular target: T3, Malate dehydrogenase, mitochondrial (Sus scrofa); assay: Compound was tested for the inhibition of malate dehydrogenase (MDH) at 50 uM
[10] = molecular target: T3, Malate dehydrogenase, mitochondrial (Sus scrofa); assay: Compound was tested for the inhibition of malate dehydrogenase (MDH) at 100 uM
Beta-lactamase [11] = molecular target: T5, Beta-lactamase; assay: Effect of pre-incubation with enzyme on the inhibition of beta-lactamase:No inhibition
Beta-lactamase [12] = molecular target: T5, Beta-lactamase; assay: Effect of increase in enzyme concentration by 10 times on the inhibition of beta-lactamase by the compound:No inhibition
Beta-lactamase [13] = molecular target: T5, Beta-lactamase; assay: Compound was tested for the inhibition beta-lactamase with 0.1 mg/ml saponin:No inhibition

T5 sequence (P00811 whole entry): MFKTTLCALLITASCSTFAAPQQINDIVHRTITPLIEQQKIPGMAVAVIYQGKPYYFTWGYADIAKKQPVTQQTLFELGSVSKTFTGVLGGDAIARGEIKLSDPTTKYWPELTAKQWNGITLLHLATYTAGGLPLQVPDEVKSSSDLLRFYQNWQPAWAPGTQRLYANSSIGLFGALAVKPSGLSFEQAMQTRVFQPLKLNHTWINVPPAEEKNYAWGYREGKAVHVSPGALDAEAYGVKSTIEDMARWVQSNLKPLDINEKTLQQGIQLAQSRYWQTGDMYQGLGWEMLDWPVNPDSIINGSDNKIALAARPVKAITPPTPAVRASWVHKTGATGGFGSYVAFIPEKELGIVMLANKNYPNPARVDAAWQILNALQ
Sequence of Beta-lactamase (Escherichia coli K-12) (P00811 whole entry): as above

COC(=O)Nc1nc2cc(C(=O)c3ccccc3)ccc2[nH]1
inhibition [1]: < 5%
inhibition [2]: < 5%
inhibition [3]: 15%

Nc1ccc(O)c(C(=O)O)c1
inhibition [1]: < 5%
inhibition [2]: < 5%
inhibition [4]: 18%

Clc1ccc(COC(Cn2ccnc2)c2ccc(Cl)cc2Cl)c(Cl)c1 (stereo not drawn) [MICONAZOLE]
IC50 (Chymotrypsinogen A [5]): 125 µM
IC50 (Beta-lactamase [6]): 40 µM

O=C1CN(/N=C/c2ccc([N+](=O)[O-])o2)C(=O)N1
inhibition [1]: < 5%
inhibition [2]: 91%
inhibition [3]: 97%

Clc1ccccc1C(c1ccccc1)(c1ccccc1)n1ccnc1 [CLOTRIMAZOLE]
IC50 (Chymotrypsinogen A [5]): 85 µM
IC50 (Chymotrypsinogen A [7]): Increase
IC50 (Beta-lactamase [6]): 20 µM

COc1ccccc1OCC(O)CO (stereo not drawn)
inhibition [1]: < 5%
inhibition [2]: < 5%
inhibition [3]: < 5%

O=C(OCc1ccccc1)c1ccccc1 [BENZYL BENZOATE]
IC50 (Chymotrypsinogen A [5]): 250 µM
IC50 (Beta-lactamase [6]): 90 µM
Topical dosage [8]: 1.2 M

NCCNCCNCCNCCN
inhibition [1]: < 5%
inhibition [2]: < 5%
inhibition [3]: < 5%

Nc1nc(N)c2nc(-c3ccccc3)c(N)nc2n1
inhibition [1]: < 5%
inhibition [2]: < 5%
inhibition [9]: 21%

Nc1ccc(/N=N/c2ccccc2)c(N)n1
inhibition [1]: < 5%
inhibition [2]: 96%
inhibition [3]: 34%

Cc1ccc(C)c(OCCCC(C)(C)C(=O)O)c1
inhibition [1]: < 5%
inhibition [2]: < 5%
inhibition [4]: 14%

Cc1cccc(Nc2ccncc2S(=O)(=O)NC(=O)NC(C)C)c1
inhibition [1]: < 5%
inhibition [2]: < 5%
inhibition [3]: 14%

Cc1cc2nc3c(=O)[nH]c(=O)nc-3n(C[C@H](O)[C@H](O)[C@H](O)CO)c2cc1C
inhibition [1]: < 5%
inhibition [2]: < 5%
inhibition [10]: < 5%

CC(=O)N(O)CCCCCNC(=O)CCC(=O)N(O)CCCCCNC(=O)CCC(=O)N(O)CCCCCN
inhibition [1]: < 5%
inhibition [2]: < 5%
inhibition [3]: < 5%

Clc1ccc(CSC(Cn2ccnc2)c2ccc(Cl)cc2Cl)cc1 (stereo not drawn) [SULCONAZOLE]
IC50 (Chymotrypsinogen A [5]): 110 µM

CN(C)CCOC(c1ccccc1)c1ccccc1
inhibition [1]: < 5%
inhibition [2]: < 5%
inhibition [3]: < 5%

Nc1ccc(S(=O)(=O)Nc2ncccn2)cc1
inhibition [1]: < 5%
inhibition [2]: < 5%
inhibition [4]: < 5%

COc1cc2nc(N3CCN(C(=O)c4ccco4)CC3)nc(N)c2cc1OC
inhibition [1]: 13%
inhibition [2]: < 5%
inhibition [10]: 14%

CCC1(c2ccccc2)C(=O)NCNC1=O
inhibition [1]: < 5%
inhibition [2]: < 5%
inhibition [3]: 13%

Nc1c2c(nc3ccccc13)CCCC2
inhibition [1]: < 5%
inhibition [2]: < 5%
inhibition [3]: 83%

CCn1nc(C(=O)O)c(=O)c2cc3c(cc21)OCO3
inhibition [1]: < 5%
inhibition [2]: < 5%
inhibition [9]: < 5%

CCCC(C)(COC(N)=O)COC(=O)NC(C)C (stereo not drawn)
inhibition [1]: < 5%
inhibition [2]: < 5%
inhibition [3]: < 5%

CCN(CC)CC(=O)Nc1c(C)cccc1C
inhibition [1]: < 5%
inhibition [2]: < 5%
inhibition [3]: < 5%

O=C(O)c1cc(-c2ccc(F)cc2F)ccc1O
inhibition [1]: < 5%
inhibition [2]: 13%
inhibition [3]: < 5%

Nc1nc2ccc(OC(F)(F)F)cc2s1
inhibition [1]: < 5%
inhibition [2]: < 5%
inhibition [4]: < 5%

O=C1C(CC[S+]([O-])c2ccccc2)C(=O)N(c2ccccc2)N1c1ccccc1 (stereo not drawn)
inhibition [1]: < 5%
inhibition [2]: 27%
inhibition [3]: 83%

N=C(N)N/N=C/c1c(Cl)cccc1Cl
inhibition [1]: 83%
inhibition [2]: < 5%
inhibition [3]: 20%

OC(Cn1cncn1)(Cn1cncn1)c1ccc(F)cc1F [FLUCONAZOLE]
IC50 (Beta-lactamase [11]): Not Active
IC50 (Chymotrypsinogen A [5]): > 400 µM
IC50 (Beta-lactamase [12]): Not Active
IC50 (Beta-lactamase [13]): Not Active
IC50 (Beta-lactamase [6]): > 400 µM
